# In patent US20260042734A1, “HETEROCYCLIC RING-SUBSTITUTED AROMATIC COMPOUND, PREPARATION METHOD THEREFOR, AND USE THEREOF” (SHANGHAI HENLIUS BIOTECH, INC., priority 2023, published 2026):
# Molecular target: human Kv1.3 (hKv1.3) channels (Homo sapiens (Human), UniProt P22001)
# Assay: Electrophysiological (whole-cell patch clamp) determination of inhibitory activity on Kv1.3 channels
# Format: cell-based
# Conditions: HEK293T cells expressing hKv1.3; Hill fit of peak current inhibition
# Description: Test Example 1: Determination of Inhibitory Activity of Compounds on Kv1.3 (hKv1.3) Channels
# Electrophysiological Testing
# Potassium currents were measured using HEK293T cells expressing human Kv1.3 (hKv1.3) channels.
# Prior to the start of electrophysiological experiments, Kv1.3 cell lines should be maintained within 70% of the maximum density in the logarithmic growth phase. All reagents should be pre-warmed to 37° C. before use. • 1) Aspirate the spent medium from the 6 cm culture dish. • 2) Add 1 mL of PBS, gently rock the dish to rinse the bottom, and then remove the PBS. • 3) Add 1 mL of trypsin, and gently rock the dish to ensure the trypsin covers all the cells. • 4) Incubate at 37° C. for 2-3 minutes, and then gently pipette the cells to suspend the adherent cells. • 5) Transfer the cell suspension to a new centrifuge tube and centrifuge at 1000 rpm for 5 minutes. Adjust the cell concentration to 2×10^3 cells/mL, and then seed 300 μL of the cell suspension into each well of a 24-well plate containing cell climbing slides. Perform patch clamp experiments after the cells adhered properly.
# The intracellular and extracellular solutions used were designed to mimic the cell physiological ionic composition.
# Kv1.3 extracellular solution: 137 mM NaCl, 1 mM MgCl2·6H2O, 4 mM KCl, 1.8 mM CaCl2·2H2O, 10 mM D-Glucose, 10 mM HEPES, pH adjusted to 7.4 with NaOH.
# Kv1.3 intracellular solution: 140 mM KCl, 10 mM EGTA, 5 mM MgCl2·6H2O, 10 mM HEPES, […], pH adjusted to 7.2 with KOH.
# Test Compound Dissolution
# • 1) The test compound was dissolved in DMSO to prepare a 30 mM stock solution. • 2) The stock solution of the test compound was serially diluted with DMSO to obtain secondary stock solutions at concentrations of 300 μM, 100 μM, 30 μM, 10 μM, and 3 μM. • 3) 10 μL of each secondary stock solution was diluted into 10 mL of extracellular solution to achieve final concentrations of 300 nM, 100 nM, 30 nM, 10 nM, and 3 nM for electrophysiological testing.
# Kv1.3 potassium current data were collected and stored on a computer using Patchmaster software via an EPC-10 amplifier. • 1) The cell climbing slide was removed from the cell culture dish using forceps, immersed with extracellular solution, and placed into the bath chamber on the stage of an inverted microscope. • 2) Glass micropipettes were pulled using a P-1000 micropipette puller, filled one-third of their volume with intracellular solution, and then mounted onto an electrode holder. • 3) Using a motorized micromanipulator (Scientifica-Double 1U), the recording electrode was brought into contact with the cell surface. […] The positive pressure was removed, and a negative pressure of 0.5 cm H2O was applied. It was observed that the sealing resistance increased rapidly until it reached the gigaseal. When the sealing resistance between the recording electrode and the cell membrane was >1 GΩ, negative pressure was applied to rupture the membrane to form the whole-cell recording mode. After the ruptured membrane stabilized, the membrane capacitance (Cs) and series resistance (Rs) were compensated. • 4) Stimulation procedure: the cell was voltage-clamped at −80 mV, depolarized to 40 mV for a duration of 200 ms, and then repolarized to −80 mV. Currents were recorded every 10 s. • 5) Kv1.3 potassium channel currents were recorded at room temperature prior to drug application. After the control current value reached a steady state (indicated by overlapping of the four most consecutive current traces), cumulative drug application was performed. The negative control (0.1% DMSO) was applied first, followed by […] of the drugs.
# Raw Kv1.3 current peak data were extracted from PatchMaster software. The current inhibition rate was calculated as follows: Peak current inhibition rate=((1−(Peak current compound)/(Peak current vehicle))). […]
# human Kv1.3 (hKv1.3) channels, sequence (P22001 whole entry): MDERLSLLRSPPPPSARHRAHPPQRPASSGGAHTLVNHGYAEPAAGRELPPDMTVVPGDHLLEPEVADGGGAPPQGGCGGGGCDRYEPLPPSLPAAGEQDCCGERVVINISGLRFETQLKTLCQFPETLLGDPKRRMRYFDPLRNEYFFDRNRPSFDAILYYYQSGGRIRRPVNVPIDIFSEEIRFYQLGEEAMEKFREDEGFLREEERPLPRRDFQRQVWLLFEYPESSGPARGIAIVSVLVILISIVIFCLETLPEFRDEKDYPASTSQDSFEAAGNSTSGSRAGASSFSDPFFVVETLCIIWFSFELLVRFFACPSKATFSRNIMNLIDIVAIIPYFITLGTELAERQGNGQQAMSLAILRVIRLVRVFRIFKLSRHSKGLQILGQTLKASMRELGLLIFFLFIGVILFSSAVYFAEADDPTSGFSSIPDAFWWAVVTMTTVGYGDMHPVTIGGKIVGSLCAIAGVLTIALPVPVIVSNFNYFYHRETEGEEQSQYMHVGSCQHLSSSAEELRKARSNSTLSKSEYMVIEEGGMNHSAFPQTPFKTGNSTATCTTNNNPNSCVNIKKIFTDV
row,IC50 [µM],Molecule
1,0.03 to 0.1,"OC[C@@H](O)CN1CC(c2c(O)ccc(Cl)c2Cl)CC1=S (mixture of isomers) [Compound 131, rac-4-(2,3-dichloro-6-hydroxyphenyl)-1-((S)-2,3-dihydroxypropyl)pyrrolidine-2-thione]"

# Same assay, conditions: HEK-293T; compound concentration 10 nM; HEK293T cells expressing hKv1.3; peak current inhibition; read-out: 10 nM inhibition rate (Kv1.3)
row,inhibition at 0.01 µM [%],Molecule
1,25 to 50,"OCCCN1CC(c2c(O)ccc(Cl)c2Cl)CC1=S (racemic) [Compound 1, rac-4-(2,3-Dichloro-6-hydroxyphenyl)-1-(3-hydroxypropyl)pyrrolidine-2-thione]"
2,50 to 75,"NCCCN1CC(c2c(O)ccc(Cl)c2Cl)CC1=S (racemic) [Compound 2, rac-1-(3-Aminopropyl)-4-(2,3-dichloro-6-hydroxyphenyl)pyrrolidine-2-thione]"
3,0 to 5,"ONCCCN1CC(c2c(O)ccc(Cl)c2Cl)CC1=S (racemic) [Compound 26, rac-4-(2,3-Dichloro-6-hydroxyphenyl)-1-(3-(hydroxyamino)propyl)pyrrolidine-2-thione]"
4,25 to 50,"Oc1ccc(Cl)c(Cl)c1C1CC(=S)N(C2CC3(CNC3)C2)C1 (racemic) [Compound 34, rac-4-(2,3-Dichloro-6-hydroxyphenyl)-1-(2-azaspiro[3.3]heptan-6-yl)pyrrolidine-2-thione]"
5,< 0,"Oc1ccc(Cl)c(Cl)c1C1CC(=S)N(CCn2cccn2)C1 (racemic) [Compound 37, rac-1-(2-(1H-Pyrazol-1-yl)ethyl)-4-(2,3-dichloro-6-hydroxyphenyl)pyrrolidine-2-thione]"
6,50 to 75,"Cn1cc(N2CC(c3c(O)ccc(Cl)c3Cl)CC2=S)cn1 (racemic) [Compound 40, 4-(2,3-dichloro-6-hydroxyphenyl)-1-(1-methyl-1H-pyrazol-4-yl)pyrrolidine-2-thione]"
7,25 to 50,"C=Cn1cc(N2CC(c3c(O)ccc(Cl)c3Cl)CC2=S)cn1 (racemic) [Compound 66, rac-4-(2,3-dichloro-6-hydroxyphenyl)-1-(1-vinyl-1H-pyrazol-4-yl)pyrrolidine-2-thione]"
8,25 to 50,"CS(=O)(=O)n1cc(N2CC(c3c(O)ccc(Cl)c3Cl)CC2=S)cn1 (racemic) [Compound 68, rac-4-(2,3-dichloro-6-hydroxyphenyl)-1-(1-(methylsulfonyl)-1H-pyrazol-4-yl)pyrrolidine-2-thione]"
9,50 to 75,"CS(=O)(=O)n1cc(N2CC(c3c(O)ccc(Cl)c3Cl)CC2=O)cn1 (racemic) [Compound 92, 4-(2,3-Dichloro-6-hydroxyphenyl)-1-(1-(methylsulfonyl)-1H-pyrazol-4-yl)pyrrolidin-2-one]"
10,≥ 75,"O=C1CC(c2c(O)ccc(Cl)c2Cl)CN1CCCNO (racemic) [Compound 103, 4-(2,3-Dichloro-6-hydroxyphenyl)-1-(3-(hydroxyamino)propyl)pyrrolidin-2-one]"
11,25 to 50,"Oc1ccc(Cl)c(Cl)c1C1CC(=S)N([C@H]2C[C@H](O)C2)C1 (mixture of isomers) [Compound 124, rac-4-(2,3-dichloro-6-hydroxyphenyl)-1-((1r,3r)-3-hydroxycyclobutyl)pyrrolidine-2-thione]"
12,0 to 5,"OCC1(CN2CC(c3c(O)ccc(Cl)c3Cl)CC2=S)CC1 (racemic) [Compound 125, rac-4-(2,3-Dichloro-6-hydroxyphenyl)-1-((1-(hydroxymethyl)cyclopropyl)methyl)pyrrolidine-2-thione]"
13,0 to 5,"OC[C@H]1C[C@H](N2CC(c3c(O)ccc(Cl)c3Cl)CC2=S)C1 (mixture of isomers) [Compound 126, rac-4-(2,3-dichloro-6-hydroxyphenyl)-1-((1r,3r)-3-(hydroxymethyl)cyclobutyl)pyrrolidine-2-thione]"
14,0 to 5,"OC[C@H]1C[C@@H](N2CC(c3c(O)ccc(Cl)c3Cl)CC2=S)C1 (mixture of isomers) [Compound 127, rac-4-(2,3-dichloro-6-hydroxyphenyl)-1-((1s,3s)-3-(hydroxymethyl)cyclobutyl)pyrrolidine-2-thione]"
15,0 to 5,"Oc1ccc(Cl)c(Cl)c1C1CC(=S)N(C[C@H]2C[C@@H](O)C2)C1 (mixture of isomers) [Compound 128, rac-4-(2,3-dichloro-6-hydroxyphenyl)-1-(((1s,3s)-3-hydroxycyclobutyl)methyl)pyrrolidine-2-thione]"
16,0 to 5,"Oc1ccc(Cl)c(Cl)c1C1CC(=S)N(C[C@H]2C[C@H](O)C2)C1 (mixture of isomers) [Compound 129, rac-4-(2,3-dichloro-6-hydroxyphenyl)-1-(((1r,3r)-3-hydroxycyclobutyl)methyl)pyrrolidine-2-thione]"
17,25 to 50,"OCCCCN1CC(c2c(O)ccc(Cl)c2Cl)CC1=S (racemic) [Compound 130, rac-4-(2,3-dichloro-6-hydroxyphenyl)-1-(4-hydroxybutyl)pyrrolidine-2-thione]"
18,50 to 75,"OC[C@@H](O)CN1CC(c2c(O)ccc(Cl)c2Cl)CC1=S (mixture of isomers) [Compound 131, rac-4-(2,3-dichloro-6-hydroxyphenyl)-1-((S)-2,3-dihydroxypropyl)pyrrolidine-2-thione]"
19,0 to 5,"OCCCN1CC(c2c(O)ccc(F)c2Cl)CC1=S (racemic) [Compound 148, rac-4-(2-chloro-3-fluoro-6-hydroxyphenyl)-1-(3-hydroxypropyl)pyrrolidine-2-thione]"
20,< 0,"OCCCN1CC(c2c(O)ccc(Cl)c2F)CC1=S (racemic) [Compound 149, rac-4-(3-chloro-2-fluoro-6-hydroxyphenyl)-1-(3-hydroxypropyl)pyrrolidine-2-thione]"
21,50 to 75,"Oc1ccc(Cl)c(Cl)c1C1CC(=S)N(c2cnn(C3CC3)c2)C1 (racemic) [Compound 150, rac-1-(1-cyclopropyl-1H-pyrazol-4-yl)-4-(2,3-dichloro-6-hydroxyphenyl)pyrrolidine-2-thione]"
22,25 to 50,"Oc1ccc(Cl)c(Cl)c1C1CC(=S)N(c2cnn3c2CCC3)C1 (racemic) [Compound 159, rac-4-(2,3-dichloro-6-hydroxyphenyl)-1-(5,6-dihydro-4H-pyrrolo[1,2-b]pyrazol-3-yl)pyrrolidine-2-thione]"
23,25 to 50,"O=C1CC(c2c(O)ccc(Cl)c2Cl)CN1c1cnn2c1CCC2 (racemic) [Compound 160, rac-4-(2,3-dichloro-6-hydroxyphenyl)-1-(5,6-dihydro-4H-pyrrolo[1,2-b]pyrazol-3-yl)pyrrolidin-2-one]"
24,50 to 75,"Oc1ccc(Cl)c(Cl)c1C1CC(=S)N(c2cnn3c2OCC3)C1 (racemic) [Compound 161, rac-4-(2,3-dichloro-6-hydroxyphenyl)-1-(2,3-dihydropyrazolo[5,1-b]oxazol-7-yl)pyrrolidine-2-thione]"
25,0 to 5,"Oc1ccc(Cl)c(Cl)c1C1CC(=S)N(c2cnn3c2OCCC3)C1 (racemic) [Compound 162, rac-4-(2,3-dichloro-6-hydroxyphenyl)-1-(6,7-dihydro-5H-pyrazolo[5,1-b][1,3]oxazin-3-yl)pyrrolidine-2-thione]"
26,25 to 50,"Oc1ccc(Cl)c(Cl)c1C1CC(=S)N(c2cnn3c2COCC3)C1 (racemic) [Compound 163, rac-4-(2,3-dichloro-6-hydroxyphenyl)-1-(6,7-dihydro-4H-pyrazolo[5,1-c][1,4]oxazin-3-yl)pyrrolidine-2-thione]"
27,50 to 75,"Oc1ccc(Cl)c(Cl)c1C1CC(=S)N(c2cnn(C3COC3)c2)C1 (racemic) [Compound 164, rac-4-(2,3-dichloro-6-hydroxyphenyl)-1-(1-(oxetan-3-yl)-1H-pyrazol-4-yl)pyrrolidine-2-thione]"

# Same assay, conditions: compound concentration 10 nM; HEK293T cells expressing hKv1.3; peak current inhibition
row,10 nM inhibition rate (Kv1.3),Molecule
1,A (A = inhibition ≥75%),"4-(2,3-Dichloro-6-hydroxyphenyl)-1-(2,2-difluoro-3-hydroxypropyl)pyrrolidine-2-thione [Compound 121]"
